Data on 59 compounds can be found in patent publication US12121524B2, “DNA-PK inhibitors” (VERTEX PHARMACEUTICALS INCORPORATED, priority 2018, dated 2024).

pKi: −log10 of the molar value.

One may read the pKi as −log10 of the Ki, conventionally taken in molar units. Low values mean a large Ki, high ones a small Ki.

This experiment deals with DNA-PK (Homo sapiens, UniProt P78527). The experiment is described as follows: DNA-PK inhibition assay (standard radiometric 33P-ATP kinase assay). The format is biochemical. As to conditions: 100 μM ATP, approx. 6 nM DNA-PK. Here is the method: Compounds were screened for their ability to inhibit DNA-PK kinase using a standard radiometric assay. Briefly, in this kinase assay the transfer of the terminal ^33P-phosphate in ^33P-ATP to a peptide substrate is interrogated. The assay was carried out in 384-well plates to a final volume of 50 μL per well containing approximately 6 nM DNA-PK, 50 mM HEPES (pH 7.5), 10 mM MgCl2, 25 mM NaCl, 0.01% BSA, 1 mM DTT, 10 μg/mL sheared double-stranded DNA (obtained from Sigma), 0.8 mg/mL DNA-PK peptide (Glu-Pro-Pro-Leu-Ser-Gln-Glu-Ala-Phe-Ala-Asp-Leu-Trp-Lys-Lys-Lys, obtained from American Peptide), and 100 μM ATP.
Accordingly, compounds of the invention were dissolved in DMSO to make 10 mM initial stock solutions. Serial dilutions in DMSO were then made to obtain the final solutions for the assay. A 0.75 μL aliquot of DMSO or inhibitor in DMSO was added to each well, followed by the addition of ATP substrate solution containing ^33P-ATP (obtained from Perkin Elmer). The reaction was started by the addition of DNA-PK, peptide and ds-DNA. After 45 min, the reaction was quenched with 25 μL of 5% phosphoric acid. The reaction mixture was transferred to MultiScreen HTS 384-well PH plates (obtained from Millipore), allowed to bind for one hour, and washed three times with 1% phosphoric acid. Following the addition of 50 μL of Ultima Gold™ high efficiency scintillant (obtained from Perkin Elmer), the samples were counted in a Packard TopCount NXT Microplate Scintillation and Luminescence Counter (Packard BioScience). The Ki values were calculated using Microsoft Excel Solver macros to fit the data to the kinetic model for competitive tight-binding inhibition.
The compound `CCCCc1cnc2cc(N3CCOCC3)cc(O[C@H]3CC[C@@H](Nc4ncccn4)CC3)c2n1` [Compound 63] showed a negative-log Ki (pKi) of more than 7.00.

On to `CCCCc1cnc2cc(N3CCOCC3)cc(O[C@H]3CC[C@@H](Nc4ncc(Br)cn4)CC3)c2n1` [Compound 64], for which the negative-log Ki (pKi) was more than 7.00. `NC(=O)c1cnc(N[C@H]2CC[C@@H](Oc3cc(N4CCOCC4)cc4nccnc34)CC2)nc1` [Compound 65] gave a negative-log Ki (pKi) of more than 7.00. Take `CCOCCOc1cnc(N[C@H]2CC[C@@H](Oc3cc(N4CCOCC4)cc4nccnc34)CC2)nc1` [Compound 66]: the pKi was more than 7.00. The compound `CN(C)c1cnc(N[C@H]2CC[C@@H](Oc3cc(N4CCOCC4)cc4nccnc34)CC2)nc1` [Compound 67] gave a pKi of more than 7.00. In the case of `O=C(O)c1cnc(N[C@H]2CC[C@@H](Oc3cc(N4CCOCC4)cc4nccnc34)CC2)nc1` [Compound 69], the negative logarithm of the Ki (pKi) is more than 7.00. For `CNC(=O)c1cnc(N[C@H]2CC[C@@H](Oc3cc(N4CCOCC4)cc4nccnc34)CC2)nc1` [Compound 71] the value was more than 7.00; for `CN(C)C(=O)c1cnc(N[C@H]2CC[C@@H](Oc3cc(N4CCOCC4)cc4nccnc34)CC2)nc1` [Compound 72], more than 7.00. Compound `N#Cc1ccnc(N[C@H]2CC[C@@H](Oc3cc(N4CCOCC4)cc4nccnc34)CC2)c1` [Compound 84] showed a pKi of more than 7.00. `N#Cc1cccnc1N[C@H]1CC[C@@H](Oc2cc(N3CCOCC3)cc3nccnc23)CC1` [Compound 87] gave a pKi of more than 7.00.

In turn, `O=C(O)c1ccnc(N[C@H]2CC[C@@H](Oc3cc(N4CCOCC4)cc4nccnc34)CC2)n1` [Compound 93] had a pKi of more than 7.00. In the case of `OCc1cnc(N[C@H]2CC[C@@H](Oc3cc(N4CCOCC4)cc4nccnc34)CC2)nc1` [Compound 94] it was more than 7.00; in that of `Fc1cc(F)nc(N[C@H]2CC[C@@H](Oc3cc(N4CCOCC4)cc4nccnc34)CC2)n1` [Compound 104], more than 7.00.

As to `CN(C)C(=O)c1cnc(N[C@H]2CC[C@@H](Oc3cc(N4CCOCC4)cc4nccnc34)CC2)cn1` [Compound 108], the negative-log Ki (pKi) is more than 7.00. `c1cnc2c(O[C@H]3CC[C@@H](Nc4ncc(C5CC5)cn4)CC3)cc(N3CCOCC3)cc2n1` [Compound 109] showed a pKi of more than 7.00. The compound `COc1cnc(N[C@H]2CC[C@@H](Oc3cc(N4CCOCC4)cc4nccnc34)CC2)nc1` [Compound 134, 5-methoxy-N-((cis)-4-((7-morpholinoquinoxalin-5-yl)oxy)cyclohexyl)pyrimidin-2-amine] showed a pKi of more than 7.00. For `CCOCCc1cnc(N[C@H]2CC[C@@H](Oc3cc(N4CCOCC4)cc4nccnc34)CC2)nc1` [Compound 135] the value was more than 7.00; for `O=C(O)c1ccc(N[C@H]2CC[C@@H](Oc3cc(N4CCOCC4)cc4nccnc34)CC2)nc1` [Compound 139], more than 7.00; for `NC(=O)c1ccc(N[C@H]2CC[C@@H](Oc3cc(N4CCOCC4)cc4nccnc34)CC2)nc1` [Compound 140], more than 7.00. In the case of `Cc1cnc(N[C@H]2CC[C@@H](Oc3cc(N4CCOCC4)cc4nccnc34)CC2)nc1` [Compound 142], the pKi was more than 7.00.

Compound `Nc1cnc(N[C@H]2CC[C@@H](Oc3cc(N4CCOCC4)cc4nccnc34)CC2)nc1` [Compound 143] showed a pKi of more than 7.00. In turn, `CNC(=O)c1ccc(N[C@H]2CC[C@@H](Oc3cc(N4CCOCC4)cc4nccnc34)CC2)nc1` [Compound 144] had a pKi of more than 7.00. With `CN(C)C(=O)c1ccc(N[C@H]2CC[C@@H](Oc3cc(N4CCOCC4)cc4nccnc34)CC2)nc1` [Compound 145], the pKi is more than 7.00. As for `COC(=O)c1ccc(N[C@H]2CC[C@@H](Oc3cc(N4CCOCC4)cc4nccnc34)CC2)nc1` [Compound 146], the negative-log Ki (pKi) was more than 7.00. `CCN(CC)c1cnc(N[C@H]2CC[C@@H](Oc3cc(N4CCOCC4)cc4nccnc34)CC2)nc1` [Compound 155]: the pKi was more than 7.00. For `Oc1cnc(N[C@H]2CC[C@@H](Oc3cc(N4CCOCC4)cc4nccnc34)CC2)nc1` [Compound 158], the pKi was more than 7.00. `OCc1ccc(N[C@H]2CC[C@@H](Oc3cc(N4CCOCC4)cc4nccnc34)CC2)nc1` [Compound 160] had a pKi of more than 7.00. For `COCc1cnc(N[C@H]2CC[C@@H](Oc3cc(N4CCOCC4)cc4nccnc34)CC2)nc1` [Compound 161] the value was more than 7.00; for `CC(C)NC(=O)c1cnc(N[C@H]2CC[C@@H](Oc3cc(N4CCOCC4)cc4nccnc34)CC2)nc1` [Compound 162], more than 7.00. The compound `Brc1ccc(N[C@H]2CC[C@@H](Oc3cc(N4CCOCC4)cc4nccnc34)CC2)nc1` [Compound 164] gave a negative logarithm of the Ki (pKi) of more than 7.00.

On to `OC1CCN(c2ccnc(N[C@H]3CC[C@@H](Oc4cc(N5CCOCC5)cc5nccnc45)CC3)n2)C1` (some centres unmarked) [Compound 187], for which the negative-log Ki (pKi) is more than 7.00. In the case of `FC(F)(F)c1ccc(N[C@H]2CC[C@@H](Oc3cc(N4CCOCC4)cc4nccnc34)CC2)nc1` [Compound 189], the pKi was more than 7.00. Take `Cc1cnc2c(O[C@H]3CC[C@@H](Nc4ncccn4)CC3)cc(N3CCOCC3)cc2n1` [Compound 190]: the pKi was more than 7.00.

In turn, `Cc1cnc2cc(N3CCOCC3)cc(O[C@H]3CC[C@@H](Nc4ncccn4)CC3)c2n1` [Compound 191] showed a pKi of more than 7.00. `COc1cc(N[C@H]2CC[C@@H](Oc3cc(N4CCOCC4)cc4nccnc34)CC2)ncn1` [Compound 194] showed a negative-log Ki (pKi) of more than 7.00.

Regarding `N#Cc1cccc(N[C@H]2CC[C@@H](Oc3cc(N4CCOCC4)cc4nccnc34)CC2)n1` [Compound 195], the pKi was more than 7.00.

As for `Nc1ccc(N[C@H]2CC[C@@H](Oc3cc(N4CCOCC4)cc4nccnc34)CC2)nc1` [Compound 197], the pKi is more than 7.00. With `CN1CCN(c2ccc(C(=O)N[C@H]3CC[C@@H](Oc4cc(N5CCOCC5)cc5nccnc45)CC3)nc2)CC1` [Compound 198], the negative logarithm of the Ki (pKi) was more than 7.00. In the case of `CN1CCN(c2ncc(C(=O)N[C@H]3CC[C@@H](Oc4cc(N5CCOCC5)cc5nccnc45)CC3)cn2)CC1` [Compound 199], the pKi was more than 7.00.

Regarding `CN1CCN(c2ccc(C(=O)N[C@H]3CC[C@@H](Oc4cc(N5CCOCC5)cc5nccnc45)CC3)cc2F)CC1` [Compound 200], the pKi was more than 7.00. The compound `COC(=O)c1cccnc1N[C@H]1CC[C@@H](Oc2cc(N3CCOCC3)cc3nccnc23)CC1` [Compound 202] had a pKi of more than 7.00. In the case of `N#Cc1nccc(N[C@H]2CC[C@@H](Oc3cc(N4CCOCC4)cc4nccnc34)CC2)n1` [Compound 203] it was more than 7.00; in that of `CNc1cc(N[C@H]2CC[C@@H](Oc3cc(N4CCOCC4)cc4nccnc34)CC2)ncn1` [Compound 205], more than 7.00. For `COc1ccc(N[C@H]2CC[C@@H](Oc3cc(N4CCOCC4)cc4nccnc34)CC2)nc1` [Compound 206] the value was more than 7.00.

With `N#Cc1ccnc(N[C@H]2CC[C@@H](Oc3cc(N4CCOCC4)cc4nccnc34)CC2)n1` [Compound 207], the pKi is more than 7.00. With `CCc1cnc(N[C@H]2CC[C@@H](Oc3cc(N4CCOCC4)cc4nccnc34)CC2)nc1` [Compound 208], the pKi was more than 7.00. For `CC(C)c1cnc(N[C@H]2CC[C@@H](Oc3cc(N4CCOCC4)cc4nccnc34)CC2)nc1` [Compound 209] the value was more than 7.00; for `O=C(O)c1ccnc(N[C@H]2CC[C@@H](Oc3cc(N4CCOCC4)cc4nccnc34)CC2)c1` [Compound 210], more than 7.00; for `CCOc1cc(N[C@H]2CC[C@@H](Oc3cc(N4CCOCC4)cc4nccnc34)CC2)ncn1` [Compound 215], more than 7.00. In the case of `COc1nc(Cl)cc(N[C@H]2CC[C@@H](Oc3cc(N4CCOCC4)cc4nccnc34)CC2)n1` [Compound 219] it was more than 7.00; in that of `COCc1cc(N[C@H]2CC[C@@H](Oc3cc(N4CCOCC4)cc4nccnc34)CC2)ncn1` [Compound 225], more than 7.00; in that of `CCOc1cnc(N[C@H]2CC[C@@H](Oc3cc(N4CCOCC4)cc4nccnc34)CC2)nc1` [Compound 233], more than 7.00.

Regarding `N#Cc1cc(N[C@H]2CC[C@@H](Oc3cc(N4CCOCC4)cc4nccnc34)CC2)ncn1` [Compound 234], the pKi is more than 7.00. The compound `O[C@H](c1cnc(N[C@H]2CC[C@@H](Oc3cc(N4CCOCC4)cc4nccnc34)CC2)nc1)C(F)(F)F` [Compound 235] showed a pKi of more than 7.00. `O[C@@H](c1cnc(N[C@H]2CC[C@@H](Oc3cc(N4CCOCC4)cc4nccnc34)CC2)nc1)C(F)(F)F` [Compound 236]: the pKi was more than 7.00. `Cc1nc(N[C@H]2CC[C@@H](Oc3cc(N4CCOCC4)cc4nccnc34)CC2)ccc1C#N` [Compound 241] showed a negative-log Ki (pKi) of more than 7.00. The compound `Cc1cc(C#N)cnc1N[C@H]1CC[C@@H](Oc2cc(N3CCOCC3)cc3nccnc23)CC1` [Compound 242] gave a pKi of more than 7.00. The compound `CC(C)(O)c1cnc(N[C@H]2CC[C@@H](Oc3cc(N4CCOCC4)cc4nccnc34)CC2)nc1` [Compound 243] had a negative-log Ki (pKi) of more than 7.00.

For the compound `COc1cc(N[C@H]2CC[C@@H](Oc3cc(N4CCOCC4)cc4nccnc34)CC2)nc(OC)n1` [Compound 245], the pKi was more than 7.00.
